Test results taken from publication PMC9964544, “Evidence of Insulin-Sensitizing and Mimetic Activity of the Sesquiterpene Quinone Avarone, a Protein Tyrosine Phosphatase 1B and Aldose Reductase Dual Targeting Agent from the Marine Sponge Dysidea avara” (Pharmaceutics, 2023).
“Also recorded” adds a separate entry of the source.

Tests used:
human recombinant AKR1B1 = biological target: T1, human recombinant AKR1B1 (Homo sapiens, UniProt P15121); assay: Kinetic characterization and reversibility of AKR1B1 inhibition (Morrison equation, tight binding); type: biochemical
T1 construct: made in house
Text: AKR1B1 activity measurements obtained at each substrate concentration were fitted by nonlinear regression analysis to the Morrison equation reported below (Equation (1)). (1) vi=1−([ET]+[I]+Kiapp)−([ET]+[I]+Kiapp)^2−4[ET][I]/2[ET]
This allowed the evaluation of Kiapp . In order to obtain the inhibition constants Ki (dissociation constant of the EI complex) and Ki′ , (dissociation constant of the EIS complex), the Kiapp values were plotted against substrate concentration and fitted by nonlinear regression analysis to the following equation:(2) Kiapp=([S]+ KM)/(KM/Ki+[S]/Ki′)
Panel A: the activity of the purified enzyme (10 mU) was measured at the indicated concentrations of avarone in the presence of the indicated L-idose concentrations. (B) Experimental data reported in (A) were fitted to the Morrison equation (see Materials and methods, Equation (1)).

C2C12 cells = assay: Seahorse XFe96 Mito Stress Test in C2C12 cells; type: cell-based; conditions: C2C12 treated for 30 min
Protocol: C2C12 cells (3 × 10^4 cells/well) were placed in XFe96 cell culture plates. After 24 h of incubation at 37 °C, cell growth medium was substituted with an XF base medium supplemented with 2 mM glutamine, 1 mM sodium pyruvate, and 10 mM glucose, pH 7.4. The plate was then transferred in a non-CO2 incubator for 1 h at 37 °C to pre-equilibrate the cells before analysis. An XF Mito Stress Test was performed to assay the cells’ ability to exploit mitochondrial oxidative metabolism, according to the manufacturer’s instructions. The oxygen consumption rate (OCR) was evaluated after the injection of a sequence of compounds that interfere with the electron transport chain: oligomycin (1 μM), carbonyl cyanide-4 (trifluoromethoxy) phenylhydrazone (FCCP) (1 μM), and Rotenone/Antimycin A (0.5 μM). All data were normalized on the protein content of each well.
Figure 10 Results of Mito Stress Test assay. (A) C2C12 cells were subjected to Seahorse XFe96-Mito Stress Test analysis to evaluate oxygen consumption rate (OCR) in real time. OCR values were normalized on protein content. (B) Basal respiration, ATP-linked OCR, spare capacity, maximal respiration, and proton leak were calculated using data obtained from OCR plot after the administration of the adenosine triphosphate ATP synthase inhibitor oligomycin, the proton uncoupler carbonylcyanide p-trifluoromethoxyphenylhydrazone (FCCP), and the combination of the respiratory complex I inhibitor rotenone and the respiratory complex III inhibitor antimycin A. Each point reported in the OCR plot represents the medium value ± SEM obtained from independent replicates (n = 3 or 4). One-way ANOVA with Dunnett’s correction was used to assess differences in experimental features by using Prism 8 software (GraphPad). Statistical significance is annotated as follows: * p ≤ 0.01, ** p ≤ 0.001, *** p ≤ 0.0001, (t-test); ns, not significant; FC, fold change.

[1] = test system: human microvascular endothelial cells (HMEC-1); parameters: method as in PMID 32075136; conditions: ref [19]; read-out: IC50 cytotoxicity HMEC-1; cited from earlier work
Human PTP1B = biological target: T2, Human PTP1B (Homo sapiens, UniProt P18031); assay: PTP1B inhibition assay with pNPP as substrate (IC50); type: biochemical; parameters: polyHis (N); made in house; conditions: 2.5 mM pNPP, 37 °C; IC50 ± SD
T2 sequence (P18031 1-302): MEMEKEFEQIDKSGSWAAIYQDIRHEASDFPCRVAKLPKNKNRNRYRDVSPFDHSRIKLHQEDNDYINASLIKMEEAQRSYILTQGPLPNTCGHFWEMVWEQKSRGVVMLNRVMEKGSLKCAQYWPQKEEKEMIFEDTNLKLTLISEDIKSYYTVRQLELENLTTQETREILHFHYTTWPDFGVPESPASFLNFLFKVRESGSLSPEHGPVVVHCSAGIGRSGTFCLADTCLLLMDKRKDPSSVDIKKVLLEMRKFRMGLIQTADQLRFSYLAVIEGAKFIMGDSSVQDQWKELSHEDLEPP
Protocol: The purification of human recombinant AKR1B1 was performed as previously described. […] The purified enzyme, stored at −80 °C in 10 mM sodium phosphate buffer pH 7.0 containing 2 mM DTT and 30% (w/v) glycerol, was extensively dialyzed against 10 mM sodium phosphate buffer pH 7.0 before use. […] The fractions containing PTP1B were collected, concentrated, and injected into a Superdex G75 column equilibrated with Tris-HCl buffer pH 8.0 containing 150 mM NaCl and 1 mM mercaptoethanol. The fractions containing PTP1B were collected and concentrated; the purity of preparation was evaluated using SDS-PAGE. The PTP1B preparation was split into fractions of 0.5 mL volume; each fraction was stored at −80 °C.
The standard assay mixture (final volume 0.7 mL) was contained in 0.25 M sodium phosphate buffer pH 6.8, 0.18 mM NADPH, 0.4 M ammonium sulfate, 0.5 mM EDTA, and 4.7 mM GAL. One unit of enzyme activity is the amount of enzyme that catalyzes the conversion of 1 µmol of substrate/min in the above assay conditions. The same assay conditions were adopted in the inhibition studies using L-idose as the substrate at the indicated concentrations. PTP1B activity was determined using p-nitrophenylphosphate (pNPP) as the synthetic substrate. The pNPP was dissolved in 0.075 M ββ-dimethylglutarate buffer, pH 7.0, containing 1 mM dithiothreitol. Each assay was carried out at 37 °C in 1 mL of assay buffer. The reactions were started by diluting an aliquot of PTP1B preparation in the assay buffer; after 30 min, the reactions were stopped by adding 2 mL of 0.2 M KOH solution. The amount of p-nitrophenol released was determined spectrophotometrically, reading the absorbance of solutions at 400 nm (ε400nm = 18 mM^−^1cm^−^1).

Ki' (dissociation constant of the EIS complex) AKR1B1 (human recombinant AKR1B1; L-idose substrate, tight binding non-competitive model): 0.055 ± 0.008 µM | Ki (human recombinant AKR1B1; L-idose substrate, tight binding non-competitive model, read-out: Ki (dissociation constant of the EI complex) AKR1B1): 0.41 ± 0.094 µM | IC50 (Human PTP1B): 6.7 ± 0.6 µM
SMILES: CC1=CCC[C@H]2[C@](C)(CC3=CC(=O)C=CC3=O)[C@@H](C)CC[C@]12C [avarone (2), avarone]
type of AKR1B1 inhibition (human recombinant AKR1B1): “tight binding” inhibitor; also recorded: non-competitive mixed-type inhibitor | basal respiration (OCR) (C2C12 cells): does not alter basal respiration | maximal respiration (C2C12 cells): slightly increases; also recorded: increases | oxygen-dependent ATP production (C2C12 cells): does not impair the oxygen-dependent ATP production | proton leak rate (C2C12 cells): without enhancing the proton leak rate | spare capacity (C2C12 cells): slightly increases; also recorded: increases | IC50 [1]: 62.2 µM
